Active and inactive are the calls of the source. The rule behind the calls is not given here.
Test system: Trypanosoma cruzi
Test: (§1) Inhibition of Trypanosoma cruzi dihydroorotate dehydrogenase by isothermal titration calorimetry
Settings: not given
In the case of `Oc1nc(O)c2nc(O)[nH]c2n1`, the “Ki(app)” value is reported as “inactive”.
In the case of `O=c1[nH]c(=O)c2nn[nH]c2[nH]1`, the “Ki(app)” value is reported as “inactive”.
For `CCCCOC(=O)c1cc(O)nc(O)n1`, the “Ki(app)” value was “inactive”.
For `O=C1OCc2c1[nH]c(=O)[nH]c2=O`, the “Ki(app)” value was “inactive”.

Biological target: not listed separately
Test: as §1
Settings: read-out: Ki(app)
`O=C(O)c1[nH]c(=O)[nH]c(=O)c1[N+](=O)[O-]` showed a Ki of 139 µM.
In the case of `Nc1c(C(=O)O)[nH]c(=O)[nH]c1=O`, the Ki is reported as 94.8 µM.
`O=C(O)c1[nH]c(=O)[nH]c(=O)c1F` showed a Ki of 19.3 µM.
`O=C(O)c1nc(=O)[nH]c(=O)[nH]1` [OTERACIL] showed a Ki of 21.7 µM.
With `O=C(O)c1cc(=O)[nH]c(=O)[nH]1` [OROTIC ACID] the Ki was 72.2 µM.
`CN(C)Cc1c(C(=O)O)[nH]c(=O)[nH]c1=O` gave a Ki of 300 µM.

Biological target: not listed separately
Test: Inhibition of Leishmania major dihydroorotate dehydrogenase by isothermal titration calorimetry
Settings: read-out: Ki(app)
In the case of `O=C(O)c1[nH]c(=O)[nH]c(=O)c1[N+](=O)[O-]`, the Ki is reported as 213 µM.
`Nc1c(C(=O)O)[nH]c(=O)[nH]c1=O` gave a Ki of 82.8 µM.

Reference: ChEMBL document CHEMBL1629516, “Novel insights for dihydroorotate dehydrogenase class 1A inhibitors discovery” (Eur J Med Chem, 2010)
